Laboratory results from article PMC9421654, “Discovery of Substituted Di(pyridin-2-yl)-1,2,4-thiadiazol-5-amines as Novel Macrofilaricidal Compounds for the Treatment of Human Filarial Infections” (Journal of Medicinal Chemistry, 2022).
“And” between values parts separate entries of the source, which are not always exact repeats. Identical values can stand only once. Like-named read-outs stand apart in the source and are kept apart here. Marks after values point to notes of the source that are not given here.

Experiments:
[1] = Liver S9 metabolic stability assay, rat; type: in vitro ADME; details: 3 μM, 60 min
Summary of the method: (§1)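 Rat and human liver S9 (0.75 and 1.2 mg/ml) with 1 mM NADPH, 0.5 mM UDPGA, 2.5 mM GSH, 0.05 mg/ml PAPS, 3µM substrate, 60 min at 37 °C in Tris/MgCl2 pH 7.4. Mouse microsomes 0.3 mg/mL, 1 mM NADPH, 3µM, 30 min, phosphate pH 7.4. LC-MS/MS, % remaining, triplicate.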

[2] = target: T1, hERG potassium channels (KCNH2, expressed in HEK293 cells) (Homo sapiens, UniProt Q12809); assay: hERG inhibition; type: cell-based
T1 construct: expressed in transfected cells
T1 sequence (Q12809 whole entry): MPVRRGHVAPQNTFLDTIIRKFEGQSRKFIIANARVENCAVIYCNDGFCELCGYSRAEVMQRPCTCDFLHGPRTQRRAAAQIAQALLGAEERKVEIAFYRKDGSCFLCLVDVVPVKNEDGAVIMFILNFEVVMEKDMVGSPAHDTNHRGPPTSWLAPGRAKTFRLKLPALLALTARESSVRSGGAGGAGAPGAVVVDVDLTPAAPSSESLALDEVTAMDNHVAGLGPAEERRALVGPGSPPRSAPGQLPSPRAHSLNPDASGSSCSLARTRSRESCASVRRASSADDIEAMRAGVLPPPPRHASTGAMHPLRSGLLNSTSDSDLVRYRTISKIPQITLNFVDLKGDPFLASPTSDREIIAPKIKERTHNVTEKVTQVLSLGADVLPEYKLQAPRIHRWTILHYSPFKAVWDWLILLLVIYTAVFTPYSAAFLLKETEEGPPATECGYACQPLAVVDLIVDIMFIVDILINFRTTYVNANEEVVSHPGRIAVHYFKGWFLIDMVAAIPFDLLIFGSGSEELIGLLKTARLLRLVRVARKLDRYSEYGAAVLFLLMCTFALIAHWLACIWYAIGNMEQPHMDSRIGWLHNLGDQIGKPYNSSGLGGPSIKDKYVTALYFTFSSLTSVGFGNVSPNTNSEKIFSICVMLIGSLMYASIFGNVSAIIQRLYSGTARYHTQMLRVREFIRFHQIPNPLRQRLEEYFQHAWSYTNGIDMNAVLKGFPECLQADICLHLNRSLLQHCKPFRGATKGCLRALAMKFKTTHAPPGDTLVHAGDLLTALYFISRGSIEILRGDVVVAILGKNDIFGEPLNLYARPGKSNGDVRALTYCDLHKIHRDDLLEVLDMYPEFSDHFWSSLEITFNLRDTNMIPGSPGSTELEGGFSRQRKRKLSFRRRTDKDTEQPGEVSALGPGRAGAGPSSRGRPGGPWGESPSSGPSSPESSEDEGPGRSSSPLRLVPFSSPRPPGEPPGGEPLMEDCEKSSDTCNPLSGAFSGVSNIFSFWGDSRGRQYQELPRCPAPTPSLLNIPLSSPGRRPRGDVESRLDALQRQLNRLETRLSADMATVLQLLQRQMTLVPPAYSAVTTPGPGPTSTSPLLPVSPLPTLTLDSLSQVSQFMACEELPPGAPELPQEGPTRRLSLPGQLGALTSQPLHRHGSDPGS

[3] = tested on: THLE-2 cells; assay: THLE-2 cytotoxicity assay (ATP); details: for IC50: Homo sapiens
Summary of the method: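 THLE-2 cells in supplemented LHC-8 medium were exposed for 24 or 72 h to final concentrations of 0.01–300 μM. Viability was read as ATP by CellTiter-Glo luminescence and normalized to DMSO vehicle. IC50 came from nonlinear regression of dose-response curves.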

[4] = Liver S9 metabolic stability assay, human; type: in vitro ADME; details: 3 μM, 60 min
Summary of the method: as §1

[5] = Mouse pharmacokinetics; type: in vivo; details: for Kp: brain and plasma
From the text: All animal experiments were approved by the Institutional Animal Care and Use Committee (IACUC) of Bristol Myers Squibb.

[6] = tested on: O. volvulus L5 larvae; assay: O. volvulus L5 ex vivo assay, motility; type: cell-based; details: Onchocerca volvulus, 504 h, read-out: O. volvulus L5 % inhibition of motility
Protocol: O. volvulus larvae (L4) were prepared using cryopreserved O. volvulus L3 cultured in a medium containing 1:1 NCTC-109 and IMDM (Iscove’s modified Dulbecco’s medium) supplemented with Glutamax (1×) and 2× Antibiotic-Antimycotic (Life Technologies). This culturing medium was then added in transwell 24-well plates containing human umbilical vein endothelial cell (HUVEC) monolayers, containing the L4 larvae. A week prior to conducting an assay, the cultured O. volvulus larvae (L5) were transferred into a Petri dish containing fresh medium. Aliquots of 8–10 worms were retrieved from the Petri dish and placed inside new transwells over newly seeded HUVEC monolayers in the medium described above. After the transfer of O. volvulus L5 to the plates, the test compounds were dissolved in DMSO, added to each well, and incubated at 37 °C in a 5% CO2. The media containing freshly prepared compounds were partially replaced every 2–3 days for 14 days. After 14 days, the media were completely replaced. The untreated control contains the media described above with a final concentration of 0.05% DMSO. The motility was measured every 2–3 days with the following scale: 100% motility, constant coiling movement; 75% motility, slower coiling; 50% motility, slow and intermittent movement; 25% motility, very slow movement or twitching; and 0% motility, no movement. The motility was measured visually by two operators. On day 28, the viability of O. volvulus L5 was measured by MTT. Following washout and incubation during 1 h in PBS under 5% CO2, worms were observed under an inverted microscope. Worms were considered dead if no staining or less than 50% within the worm was observed. Otherwise, if worms stained blue or more than 50% stained, then they are considered alive. All test treatments were performed in duplicates. Significance was determined using a t test.

[7] = tested on: O. volvulus L5 larvae; assay: O. volvulus L5 ex vivo assay, MTT viability; type: cell-based, Onchocerca volvulus; details: Day 21, 1 uM
Protocol: This culturing medium was then added in transwell 24-well plates containing human umbilical vein endothelial cell (HUVEC) monolayers, containing the L4 larvae. A week prior to conducting an assay, the cultured O. volvulus larvae (L5) were transferred into a Petri dish containing fresh medium. […] After the transfer of O. volvulus L5 to the plates, the test compounds were dissolved in DMSO, added to each well, and incubated at 37 °C in a 5% CO2. The media containing freshly prepared compounds were partially replaced every 2–3 days for 14 days. After 14 days, the media were completely replaced. The untreated control contains the media described above with a final concentration of 0.05% DMSO. […] The motility was measured visually by two operators. […] Following washout and incubation during 1 h in PBS under 5% CO2, worms were observed under an inverted microscope. Worms were considered dead if no staining or less than 50% within the worm was observed. Otherwise, if worms stained blue or more than 50% stained, then they are considered alive. All test treatments were performed in duplicates. Significance was determined using a t test.

[8] = tested on: L. sigmodontis adult worms
[9] = target: CYP2D6 (Homo sapiens, UniProt P10635); assay: Cytochrome P450 inhibition, 2D6; type: in vitro ADME; details: read-out: Cytochrome P450s IC50, 2D6
Chain of CYP2D6 (P10635 whole entry): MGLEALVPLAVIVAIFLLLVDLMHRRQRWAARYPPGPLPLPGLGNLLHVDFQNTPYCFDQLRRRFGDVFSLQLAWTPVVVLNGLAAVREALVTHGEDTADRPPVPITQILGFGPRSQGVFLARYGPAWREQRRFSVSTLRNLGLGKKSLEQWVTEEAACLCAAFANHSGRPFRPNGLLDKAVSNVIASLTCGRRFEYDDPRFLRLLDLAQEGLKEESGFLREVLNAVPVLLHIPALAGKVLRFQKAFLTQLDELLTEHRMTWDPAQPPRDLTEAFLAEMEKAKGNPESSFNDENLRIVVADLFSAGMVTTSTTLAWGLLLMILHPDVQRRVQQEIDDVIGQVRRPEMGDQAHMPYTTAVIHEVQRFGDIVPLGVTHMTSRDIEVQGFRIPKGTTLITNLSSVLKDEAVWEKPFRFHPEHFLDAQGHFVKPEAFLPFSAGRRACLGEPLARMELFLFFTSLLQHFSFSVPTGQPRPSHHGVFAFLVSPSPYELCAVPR

[10] = tested on: CEREP receptor, ion channel, transporter panel; assay: Eurofins CEREP non-kinase panel, binding; details: binding at 10 μM, targets with >50%
Protocol: [36] Eurofins Cerep, Le Bois l’Evêque B.P. 30001, 86 600 Celle l’Evescault, France. Compound binding was calculated as a % inhibition of the binding of a radioactively labeled ligand specific for each target.

[11] = Plasma protein binding, human; type: in vitro ADME; details: read-out: Plasma Protein Binding %, h (converted)
[12] = male CD-1 mouse, PO 30 mg/kg suspension
[13] = THLE-2, 24 h, read-out: THLE IC50
[14] = male CD-1 mouse, PO 10 mg/kg suspension

SMILES	Rat S9 metabolic stability [1] [% remaining]	IC50 ([2]; supplement) [µM]	IC50 ([3]; THLE-2, read-out: THLE IC50) [µM]	Human S9 metabolic stability [4] [% remaining]	O. volvulus L5 % inhibition of viability [7] [%]	AUC(0-inf) [5, 12]	Cmax [5, 12] [nM]	Tmax [5, 12]	IC50 [3, 13] [µM]	also measured
CNc1cccnc1Nc1nc(-c2ccc(OC(C)C)cn2)ns1 [Compound 30]	73	16	17.5	86	–	–	–	–	–	–
CC(C)Oc1ccc(-c2nsc(Nc3ncccc3N(C)C(=O)C3CC3)n2)nc1 [Compound 50, N-(2-((3-(5-Isopropoxypyridin-2-yl)-1,2,4-thiadiazol-5-yl)amino)pyridin-3-yl)-N-methylcyclopropanecarboxamide]	–	–	7.4	–	100	–	–	–	–	Kp ([5]; male, CD-1, mouse, brain to plasma ratio, dose not given, read-out: [b]/[p]): 0.11; inhibition at 1 µM ([6]; Day 21, 1 uM): 100%
Cc1cccnc1Nc1nc(-c2ccc(OC3CCN(C4CC4)CC3)cn2)ns1 [Compound 19, 3-[5-[(1-Cyclopropyl-4-piperidyl)oxy]-2-pyridyl]-N-(3-methyl-2-pyridyl)-1,2,4-thiadiazol-5-amine]	76	–	–	83	–	6.23 ± 6.16 µM·h	2080 ± 1220	0.5 ± 0.0 h	121	IC50 [2]: 3.46 µM
CC(C)c1ccnc(-c2nsc(Nc3cc(C(F)(F)F)ccn3)n2)c1 [Compound 35, 3-(4-Isopropylpyridin-2-yl)-N-(4-(trifluoromethyl)pyridin-2-yl)-1,2,4-thiadiazol-5-amine]	45	–	2.3	65	–	–	210 ± 20	1.8 ± 1.7 h	–	AUC(0-inf) ([5]; male CD-1 mouse, PO 30 mg/kg suspension, 30 mg/kg): 1.7 µM·h and 1.73 ± 0.59 µM·h
Cc1ccnc(-c2nsc(Nc3ncccc3C(F)(F)F)n2)c1 [Compound 26, 3-(4-Methylpyridin-2-yl)-N-(3-(trifluoromethyl)pyridin-2-yl)-1,2,4-thiadiazol-5-amine]	61	> 30	–	56	–	–	–	–	65.6	–
Cc1cccnc1Nc1nc(-c2ccc(OC3CC3)cn2)ns1 [Compound 11, 3-(5-Cyclopropoxypyridin-2-yl)-N-(3-methylpyridin-2-yl)-1,2,4-thiadiazol-5-amine]	61	> 30	–	76	100	–	–	–	> 200	inhibition at 1 µM [6]: 100%
CC(C)c1ccnc(-c2nsc(Nc3ncccc3C(F)(F)F)n2)c1 [Compound 27]	27	–	–	45	–	–	–	–	–	inhibition at 1 µM [6]: 100%
CN(C)c1cccnc1Nc1nc(-c2ccc(OC3CC3)cn2)ns1 [Compound 32]	91	–	0.8	100	83	3.85 ± 0.76 µM·h	2340 ± 520	0.5 ± 0.00 h	–	reduction of adult worm burden ([8]; mice, 30 mg/kg BID, 7 days of dosing): 70%; adult worm burden reduction ([8]; naturally infected mice, 30 mg/kg BID 6d oral, figure prints reduction as negative value): -69.9%; inhibition at 1 µM [6]: 100%
CC(=O)N(C)c1cccnc1Nc1nc(-c2ccc(OC(C)C)cn2)ns1 [Compound 47, N-(2-((3-(5-Isopropoxypyridin-2-yl)-1,2,4-thiadiazol-5-yl)amino)pyridin-3-yl)-N-methylacetamide]	–	–	–	–	100	121 ^h μM·h	13900	0.50 ^h	–	Kp ([5]; male CD-1 mouse, PO 30 mg/kg, based on AUC0-t, read-out: brain/plasma [b]/[p]): 0.08; Vd ([5]; in vivo, male CD-1 mouse, IV 2 mg/kg, read-out: Vdss): 0.74 ± 0.08 L/kg; Cl ([5]; male CD-1 mouse, IV 2 mg/kg): 3.6 ± 0.22 mL/min/kg; AUC(0-inf) [5, 14]: 68.1NC ^j μM·h; Cmax [5, 14]: 5270 ± 830 nM; Tmax ([5]; plasma, male CD-1 mouse, PO 10 mg/kg suspension, read-out: Tmax): 4 ± 2.8 h; bioavailability ([5]; plasma, male CD-1 mouse, PO 10 mg/kg vs IV 2 mg/kg): 57%; IC50 [9]: 30 µM; CEREP receptor, ion channel, transporter panel: targets bound / tested [10]: 1/76; fraction unbound [11]: 0.093; inhibition at 1 µM ([6]; Day 21, 1 uM): 100%; THLE (cytotoxicity) ATP LC50 ([3]; THLE-2 cell line): did not exhibit significant cellular cytotoxity
CC(C)Oc1ccc(-c2nsc(Nc3ncccc3C(C)C)n2)nc1 [Compound 25, 3-(5-Isopropoxy-2-pyridyl)-N-(3-isopropyl-2-pyridyl)-1,2,4-thiadiazol-5-amine]	82	–	3.2	99	–	20.0 ± 9.9 µM·h	2050 ± 270	2.4 ± 3.8 h	–	–
Cc1cccnc1Nc1nc(-c2ccc(OC3CC4(C3)CN(C3CC3)C4)cn2)ns1 [Compound 12, 3-[5-[(2-Cyclopropyl-2-azaspiro[3.3]heptan-6-yl)oxy]-2-pyridyl]-N-(3-methyl-2-pyridyl)-1,2,4-thiadiazol-5-mine]	53	0.2	5.2	58	–	–	–	–	–	IC50 [2]: 0.203 µM
Cc1cccnc1Nc1nc(-c2ccc(OC(C)C)cn2)ns1 [Compound 10, 3-(5-Isopropoxypyridin-2-yl)-N-(3-methylpyridin-2-yl)-1,2,4-thiadiazol-5-amine]	100	> 30	–	100	–	26.0 ± 9.0 µM·h	8260 ± 2600	1.0 ± 0.6 h	38.2	tolerability in mice ([8]; reason for lowering the dose from 30 to 10 mg/kg): tolerability issues
